Experiment [1] has as its system pI:pC resistant SKOV-3 cells. Description: Cell viability by alamar blue, carboplatin alone or combined with free or nanoparticle bound pI:pC. It is filed as cell-based. Conditions: carboplatin combination, 72 hours. The protocol:
Twenty-four (24) hours post seeding, cells were left untreated, or treated with EC50 carboplatin, 125 ng/ml pI:pC, 125 ng/ml pI:pC ionically bound to glycogen nanoparticles (1:1 w/w), or the combination of EC50 carboplatin and 125 ng/ml pI:pC, or EC50 carboplatin and 125 ng/ml nanoparticle bound pI:pC, and cell viability was measured after 72 hours incubation.
Cell viability was measured by alamar blue of pI:pC resistant SKOV-3 cells treated with carboplatin alone, or in combination with “free” pI:pC or glycogen nanoparticle bound pI:pC. SKOV-3 cells were plated in a 12-well dish at 1.5×10^6 per well. Twenty-four (24) hours post seeding, cells were left untreated, or treated with EC50 carboplatin, 125 ng/ml pI:pC, 125 ng/ml pI:pC ionically bound to glycogen nanoparticles (1:1 w/w), or the combination of EC50 carboplatin and 125 ng/ml pI:pC, or EC50carboplatin and 125 ng/ml nanoparticle bound pI:pC. Cells were incubated at 37° C., 5% CO2 for 72 hours, and cell viability was measured by alamar blue assay according to the manufacturer's protocol (Invitrogen).
In general terms: Resazurin is reduced to fluorescent resorufin, in cell work by metabolically active cells.

The test system of experiment [2] is IFN-beta, ISG15, CXCL10 transcripts in SKOV3, SKBR3, MCF7, HeLa, B16F10 cells. Put plainly: qRT-PCR transcript levels of interferon-stimulated genes / innate immune response in cancer cell lines. It is filed as cell-based, human. Conditions: cancer cells (Breast, Ovarian, Cervical, Melanoma); same doses bound and unbound. The protocol: SKOV-3 cells were treated with media alone (CTRL), 125 ng/ml of pI:pC, or 125 ng/mL of poly IC complexed with 250 ng/ml of PhG (poly IC:PhG) for 6 hours. Transcript levels were measured using qRT-PCR.
SKRBR-3 cells were treated with media alone (CTRL), 2.5 μg/mL of pI:pC, or 2.5 μg/mL of poly IC complexed with 5 μg/mL of PhG (poly IC:PhG) for 6 hours. Transcript levels were measured using qRT-PCR.
MCF-7 cells were treated with media alone (CTRL), 5 μg/mL of pI:pC, or 5 μg/mL of poly IC complexed with 10 μg/mL of PhG (poly IC:PhG) for 6 hours. Transcript levels were measured using qRT-PCR.
HeLa cells were treated with media alone (CTRL), 5 μg/mL of pI:pC, or 5 μg/mL of poly IC complexed with 10 μg/mL of PhG (poly IC:PhG) for 6 hours. Transcript levels were measured using qRT-PCR.
Hela cells were treated with media alone (CTRL), 5 μg/mL of pI:pC, or 5 μg/mL of poly IC complexed with 10 μg/mL of PhG (poly IC:PhG) for 6 hours. Transcript levels were measured using qRT-PCR. […]
Cells were plated in 6-well plates at 1×10E6 cells per well in DMEM and allowed to attach overnight. […] All transcripts were normalized to actin and quantified relative to mock treated.
For orientation: Real-time PCR tracks product formation cycle by cycle.

Regarding “polyinosinic:polycytidylic acid [unbound pI:pC]”, in experiment [1], the “sensitization of pI:pC resistant cells to a chemotherapeutic drug” value is “ineffective”. In experiment [2], the innate immune response entry was “ineffective”.

The record behind these values is patent US20250032641A1, “IMMUNE- STIMULATING COMPOUNDS LINKED TO GLYCOGEN-BASED POLYSACCHARIDE NANOPARTICLES FOR SENSITIZING CANCER CELLS TO A CHEMOTHERAPEUTIC DRUG” (GLYSANTIS BIOTECH INC., priority 2020, published 2025).
